In patent publication US20100204203A1, “Chemical Compounds 637: Pyridopyrimidinediones as PDE4 Inhibitors” (priority 2007, published 2010):

Molecular target: recombinant Human Phosphodiesterase B2 (PDE4B2) (Homo sapiens, UniProt Q07343)
Test: Human Phosphodiesterase B2 Radiometric Assay (yttrium silicate SPA beads, [3H]cyclic AMP)
Format: biochemical
Conditions: recombinant human PDE4B2, radiometric SPA assay, 8 nM [3H]cyclic AMP; for IC50: read-out: PDE4B2 pIC50 (converted)
Method in brief: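 Compounds were preincubated 30 min at 30 °C with 0.1 mg/mL PDE4B2 in 50 mM HEPES pH 7.5, 8.3 mM MgCl2, 1.7 mM EGTA, 0.01% Brij 35. Then 8 nM [3H]cAMP was added for 20 min, stopped with yttrium silicate SPA beads plus 18 mM ZnSO4 capturing product 5′AMP; pIC50 by curve fitting.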

recombinant Human Phosphodiesterase B2 (PDE4B2), sequence (Q07343 1-564 isoform Q07343-2): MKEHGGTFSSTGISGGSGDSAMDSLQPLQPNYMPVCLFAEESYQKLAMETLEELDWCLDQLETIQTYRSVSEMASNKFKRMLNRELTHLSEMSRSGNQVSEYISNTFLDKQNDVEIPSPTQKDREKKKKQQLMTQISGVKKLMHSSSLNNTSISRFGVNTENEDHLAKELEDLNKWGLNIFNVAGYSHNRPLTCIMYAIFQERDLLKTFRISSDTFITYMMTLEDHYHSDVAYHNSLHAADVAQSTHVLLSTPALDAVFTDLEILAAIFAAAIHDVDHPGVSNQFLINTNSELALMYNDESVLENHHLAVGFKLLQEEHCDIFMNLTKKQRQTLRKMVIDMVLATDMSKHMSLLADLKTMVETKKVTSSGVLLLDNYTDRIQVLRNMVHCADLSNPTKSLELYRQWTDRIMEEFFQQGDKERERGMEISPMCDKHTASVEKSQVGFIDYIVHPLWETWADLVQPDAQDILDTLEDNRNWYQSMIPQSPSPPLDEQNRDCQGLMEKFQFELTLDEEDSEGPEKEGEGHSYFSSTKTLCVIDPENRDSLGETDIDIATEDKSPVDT

IC50 [nM] | PDE4B2 pIC50 | SMILES
0.2 | – | CCN(CC)Cc1ccc(-c2cccc(-n3c(=O)n([C@H]4CC[C@@H](NC(=O)C5(N(C)C)CC5)CC4)c(=O)c4cc(F)cnc43)c2)cc1 [Example 127, N-{cis-4-[1-{4′-[(diethylamino)methyl]biphenyl-3-yl}-6-fluoro-2,4-dioxo-1,4-dihydropyrido[2,3-d]pyrimidin-3(2H)-yl]cyclohexyl}-1-(dimethylamino)cyclopropanecarboxamide]
– | 9.8 | CN(C)C1(C(=O)NC2CCC(n3c(=O)c4cc(F)cnc4n(-c4cccc(-c5ccc(CN6CCC(CO)CC6)cc5)c4)c3=O)CC2)CC1 (centres unmarked) [Example 128, 1-(dimethylamino)-N-{4-[6-fluoro-1-(4′-{[4-(hydroxymethyl)piperidin-1-yl]methyl}biphenyl-3-yl)-2,4-dioxo-1,4-dihydropyrido[2,3-d]pyrimidin-3(2H)-yl]cyclohexyl}cyclopropane-carboxamide]
0.0398 | – | CC(C)N1CCN(Cc2ccc(-c3cccc(-n4c(=O)n([C@H]5CC[C@@H](NC(=O)C6(N(C)C)CC6)CC5)c(=O)c5cc(F)cnc54)c3)cc2)CC1 [Example 129, 1-(dimethylamino)-N-{cis-4-[6-fluoro-1-{4′-[(4-isopropylpiperazin-1-yl)methyl]biphenyl-3-yl}-2,4-dioxo-1,4-dihydropyrido[2,3-d]pyrimidin-3(2H)-yl]cyclohexyl}cyclopropanecarboxamide]
0.0251 | – | CCN1CCN(Cc2ccc(-c3cccc(-n4c(=O)n([C@H]5CC[C@@H](NC(=O)C6(N(C)C)CC6)CC5)c(=O)c5cc(F)cnc54)c3)cc2)CC1 [Example 130, 1-(dimethylamino)-N-{cis-4-[1-{4′-[(4-ethylpiperazin-1-yl)methyl]biphenyl-3-yl}-6-fluoro-2,4-dioxo-1,4-dihydropyrido[2,3-d]pyrimidin-3(2H)-yl]cyclohexyl}cyclopropane carboxamide]
0.126 | – | Cc1cc(C(=O)N[C@H]2CC[C@@H](n3c(=O)c4cc(F)cnc4n(-c4cccc(-c5ccc(CN(C)C(C)(C)C)cc5)c4)c3=O)CC2)nn1C [Example 131, N-{cis-4-[1-(4′-{[tert-butyl(methyl)amino]methyl}biphenyl-3-yl)-6-fluoro-2,4-dioxo-1,4-dihydropyrido[2,3-d]pyrimidin-3(2H)-yl]cyclohexyl}-1,5-dimethyl-1H-pyrazole-3-carboxamide]
0.0251 | – | CCCCN(C)Cc1ccc(-c2cccc(-n3c(=O)n([C@H]4CC[C@@H](NC(=O)c5cn6c(n5)CCCC6)CC4)c(=O)c4cc(F)cnc43)c2)cc1 [Example 132, N-{cis-4-[1-(4′-{[butyl(methyl)amino]methyl}biphenyl-3-yl)-6-fluoro-2,4-dioxo-1,4-dihydropyrido[2,3-d]pyrimidin-3(2H)-yl]cyclohexyl}-5,6,7,8-tetrahydroimidazo[1,2-a]pyridine-2-carboxamide]
0.01 | – | CN(C)CCN(C)Cc1ccc(-c2cccc(-n3c(=O)n([C@H]4CC[C@@H](NC(=O)c5cn6c(n5)CCCC6)CC4)c(=O)c4cc(F)cnc43)c2)cc1 [Example 133, N-{cis-4-[1-(4′-{[[2-(dimethylamino)ethyl](methyl)amino]methyl}biphenyl-3-yl)-6-fluoro-2,4-dioxo-1,4-dihydropyrido[2,3-d]pyrimidin-3(2H)-yl]cyclohexyl}-5,6,7,8-tetrahydroimidazo[1,2-a]pyridine-2-carboxamide]
0.00794 | – | CC(C)N1CCN(Cc2ccc(-c3cccc(-n4c(=O)n([C@H]5CC[C@@H](NC(=O)c6cn7c(n6)CCCC7)CC5)c(=O)c5cc(F)cnc54)c3)cc2)CC1 [Example 134, N-{cis-4-[6-fluoro-1-{4′-[(4-isopropylpiperazin-1-yl)methyl]biphenyl-3-yl}-2,4-dioxo-1,4-dihydropyrido[2,3-d]pyrimidin-3(2H)-yl]cyclohexyl}-5,6,7,8-tetrahydroimidazo[1,2-a]pyridine-2-carboxamide]
0.00316 | – | O=C(N[C@H]1CC[C@@H](n2c(=O)c3cc(F)cnc3n(-c3cccc(-c4ccc(CN5CCSCC5)cc4)c3)c2=O)CC1)c1cn2c(n1)CCCC2 [Example 135, N-{cis-4-[6-fluoro-2,4-dioxo-1-[4′-(thiomorpholin-4-ylmethyl)biphenyl-3-yl]-1,4-dihydropyrido[2,3-d]pyrimidin-3(2H)-yl]cyclohexyl}-5,6,7,8-tetrahydroimidazo[1,2-a]pyridine-2-carboxamide]
0.0316 | – | CN(Cc1ccc(-c2cccc(-n3c(=O)n([C@H]4CC[C@@H](NC(=O)c5cn6c(n5)CCCC6)CC4)c(=O)c4cc(F)cnc43)c2)cc1)C(C)(C)C [Example 136, N-{cis-4-[1-(4′-{[tert-butyl(methyl)amino]methyl}biphenyl-3-yl)-6-fluoro-2,4-dioxo-1,4-dihydropyrido[2,3-d]pyrimidin-3(2H)-yl]cyclohexyl}-5,6,7,8-tetrahydroimidazo[1,2-a]pyridine-2-carboxamide]
0.0126 | – | CN(C)C(=O)CN1CCN(Cc2ccc(-c3cccc(-n4c(=O)n([C@H]5CC[C@@H](NC(=O)c6cn7c(n6)CCCC7)CC5)c(=O)c5cc(F)cnc54)c3)cc2)CC1 [Example 137, N-{cis-4-[1-[4′-({4-[2-(dimethylamino)-2-oxoethyl]piperazin-1-yl}methyl)biphenyl-3-yl]-6-fluoro-2,4-dioxo-1,4-dihydropyrido[2,3-d]pyrimidin-3(2H)-yl]cyclohexyl}-5,6,7,8-tetrahydroimidazo[1,2-a]pyridine-2-carboxamide]
0.00316 | – | C[C@@H]1CN(Cc2ccc(-c3cccc(-n4c(=O)n([C@H]5CC[C@@H](NC(=O)c6cn7c(n6)CCCC7)CC5)c(=O)c5cc(F)cnc54)c3)cc2)C[C@H](C)O1 [Example 138, N-{cis-4-[1-(4′-{[(2R,6S)-2,6-dimethylmorpholin-4-yl]methyl}biphenyl-3-yl)-6-fluoro-2,4-dioxo-1,4-dihydxopyrido[2,3-d]pyrimidin-3(2H)-yl]cyclohexyl}-5,6,7,8-tetrahydroimidazo[1,2-a]pyridine-2-carboxamide]
0.316 | – | CN(Cc1ccc(-c2cccc(-n3c(=O)n([C@H]4CC[C@@H](NC(=O)C5(N(C)C)CC5)CC4)c(=O)c4cc(F)cnc43)c2)cc1)C(C)(C)C [Example 207, N-{cis-4-[1-(4′-{[tert-butyl(methyl)amino]methyl}biphenyl-3-yl)-6-fluoro-2,4-dioxo-1,4-dihydropyrido[2,3-d]pyrimidin-3(2H)-yl]cyclohexyl}-1-(dimethylamino)cyclopropanecarboxamide]
0.0126 | – | CCCN1CCN(Cc2ccc(-c3cccc(-n4c(=O)n([C@H]5CC[C@@H](NC(=O)C6(N(C)C)CC6)CC5)c(=O)c5cc(F)cnc54)c3)cc2)CC1 [Example 208, 1-(dimethylamino)-N-{cis-4-[6-fluoro-2,4-dioxo-1-{4′-[(4-propylpiperazin-1-yl)methyl]biphenyl-3-yl}-1,4-dihydropyrido[2,3-d]pyrimidin-3(2H)-yl]cyclohexyl} cyclopropanecarboxamide]
0.00631 | – | C[C@@H]1CN(Cc2ccc(-c3cccc(-n4c(=O)n([C@H]5CC[C@@H](NC(=O)C6(N(C)C)CC6)CC5)c(=O)c5cc(F)cnc54)c3)cc2)C[C@H](C)O1 [Example 209, 1-(dimethylamino)-N-{cis-4-[1-(4′-{[(2R,6S)-2,6-dimethylmorpholin-4-yl]methyl}biphenyl-3-yl)-6-fluoro-2,4-dioxo-1,4-dihydropyrido[2,3-d]pyrimidin-3(2H)-yl]cyclohexyl} cyclopropanecarboxamide]
0.02 | – | CN(C)C1(C(=O)N[C@H]2CC[C@@H](n3c(=O)c4cc(F)cnc4n(-c4cccc(-c5ccc(CN6CCN(C7CCCC7)CC6)cc5)c4)c3=O)CC2)CC1 [Example 210, N-{cis-4-[1-{4′-[(4-cyclopentylpiperazin-1-yl)methyl]biphenyl-3-yl}-6-fluoro-2,4-dioxo-1,4-dihydropyrido[2,3-d]pyrimidin-3(2H)-yl]cyclohexyl}-1-(dimethylamino)cyclopropane-carboxamide]
0.0158 | – | CN(C)C1(C(=O)N[C@H]2CC[C@@H](n3c(=O)c4cc(F)cnc4n(-c4cccc(-c5ccc(CN6CCN(CCO)CC6)cc5)c4)c3=O)CC2)CC1 [Example 211, 1-(dimethylamino)-N-{cis-4-[6-fluoro-1-(4′-{[4-(2-hydroxyethyl)piperazin-1-yl]methyl}biphenyl-3-yl)-2,4-dioxo-1,4-dihydropyrido[2,3-d]pyrimidin-3(2H)-yl]cyclohexyl}cyclopropanecarboxamide]
0.0126 | – | CN(C)C1(C(=O)N[C@H]2CC[C@@H](n3c(=O)c4cc(F)cnc4n(-c4cccc(-c5ccc(CN6CCN(CC(=O)N7CCOCC7)CC6)cc5)c4)c3=O)CC2)CC1 [Example 212, 1-(dimethylamino)-N-{cis-4-[6-fluoro-1-(4′-{[4-(2-morpholin-4-yl-2-oxoethyl)piperazin-1-yl]methyl}biphenyl-3-yl)-2,4-dioxo-1,4-dihydropyrido[2,3-d]pyrimidin-3(2H)-yl]cyclohexyl} cyclopropanecarboxamide]
0.0158 | – | CC(=O)N1CCN(Cc2ccc(-c3cccc(-n4c(=O)n([C@H]5CC[C@@H](NC(=O)c6cc(C)n(C)n6)CC5)c(=O)c5cc(F)cnc54)c3)cc2)CC1 [Example 213, N-{cis-4-[1-{4′-[(4-acetylpiperazin-1-yl)methyl]biphenyl-3-yl}-6-fluoro-2,4-dioxo-1,4-dihydropyrido[2,3-d]pyrimidin-3(2H)-yl]cyclohexyl}-1,5-dimethyl-1H-pyrazole-3-carboxamide]
0.0251 | – | Cc1cc(C(=O)N[C@H]2CC[C@@H](n3c(=O)c4cc(F)cnc4n(-c4cccc(-c5ccc(CN6CCN(c7ccccn7)CC6)cc5)c4)c3=O)CC2)nn1C [Example 214, N-{cis-4-[6-fluoro-2,4-dioxo-1-{4′-[(4-pyridin-2-ylpiperazin-1-yl)methyl]biphenyl-3-yl}-1,4-dihydropyrido[2,3-d]pyrimidin-3(2H)-yl]cyclohexyl}-1,5-dimethyl-1H-pyrazole-3-carboxamide]
